# Reference: patent US7105531B2, “Tricyclic protein kinase inhibitors” (WYETH, priority 1999, dated 2006)
# Where “and” joins values, the source holds several entries; their conditions need not be identical. Equal entries are not always repeated.
# What was measured:
# [1] = target: T1, Rat2 fibroblasts transformed with v-Src/Hu c-Src fusion gene (Homo sapiens, UniProt P12931, cells depend on it, form not given); assay: Anchorage independent Src-transformed fibroblast proliferation test procedure; format: cell-based, rat; settings: rat2 fibroblasts transformed with v-src/hu c-src fusion gene; read-out: Src TF prolif IC50
# T1 construct: fused on or other part: The v-Src frame of Rous sarcoma virus: everything outside the catalytic domain, namely the N-terminal unique/SH3/SH2 part; Candidates are Prague C (P00526), then Schmidt-Ruppin A (P00524)
# Source text: Anchorage Independent Src-transformed Fibroblast Proliferation Test Procedure: Rat2 fibroblasts stably transformed with a plasmid containing CMV promotor controlled v-Src/Hu c-Src fusion gene in which the catalytic domain of human c-Src is inserted in place of the v-Src catalytic domain in the v-Src gene are used for the measurement of src dependent suspension growth.
# T1 sequence (P12931 whole entry, change not shown, the tested form may be a part): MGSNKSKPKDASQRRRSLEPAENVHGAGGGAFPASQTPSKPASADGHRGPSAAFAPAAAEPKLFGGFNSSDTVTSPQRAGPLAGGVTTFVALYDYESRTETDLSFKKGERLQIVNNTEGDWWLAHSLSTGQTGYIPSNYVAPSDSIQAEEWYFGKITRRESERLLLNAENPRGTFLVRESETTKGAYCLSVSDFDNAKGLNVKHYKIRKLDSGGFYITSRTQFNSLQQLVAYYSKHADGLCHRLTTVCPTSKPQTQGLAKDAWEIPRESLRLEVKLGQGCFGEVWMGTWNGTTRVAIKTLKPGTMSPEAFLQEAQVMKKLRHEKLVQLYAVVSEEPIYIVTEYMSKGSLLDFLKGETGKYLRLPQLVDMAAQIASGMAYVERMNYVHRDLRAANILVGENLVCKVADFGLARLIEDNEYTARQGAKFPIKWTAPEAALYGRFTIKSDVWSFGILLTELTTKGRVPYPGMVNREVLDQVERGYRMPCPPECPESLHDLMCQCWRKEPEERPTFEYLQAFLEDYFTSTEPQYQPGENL
Structure (SMILES),GI50 [1],melting point
"COc1cc(Nc2c(C#N)cnc3cc4cc(OC)c(OCCN5CCOCC5)cc4cc23)c(Cl)cc1F [Example 209, 4-(2-Chloro-4-fluoro-5-methoxyanilino)-8-methoxy-7-[2-(4-morpholinyl)ethoxy]benzo[g]quinoline-3-carbonitrile]",309 nM,204 to 214 °C
"COc1cc(Nc2c(C#N)cnc3cc4cc(OCCCN5CCOCC5)c(OC)cc4cc23)c(Cl)cc1Cl [Example 157, 4-(2,4-Dichloro-5-methoxyphenylamino)-7-methoxy-8-(3-morpholin-4-yl-propoxy)benzo[g]quinoline-3-carbonitrile]",38 nM,205 to 208 °C
"COc1cc(Nc2c(C#N)cnc3cc4cc(OCCn5ccnn5)c(OC)cc4cc23)c(Cl)cc1Cl [Example 159, 4-(2,4-Dichloro-5-methoxyphenylamino)-7-methoxy-8-(2-[1,2,3]triazol-1-yl-ethoxy)benzo[g]quinoline-3-carbonitrile]",73 nM,245 °C (dec.)
"COc1cc(Nc2c(C#N)cnc3cc4cc(OC)c(OCCN5CCN(C)CC5)cc4cc23)c(Cl)cc1F [Example 201, 4-(2-Chloro-4-fluoro-5-methoxyanilino)-8-methoxy-7-[2-(4-methyl-1-piperazinyl)ethoxy]benzo[g]quinoline-3-carbonitrile]",175 nM,170 to 173 °C
"CCOc1cc2cc3ncc(C#N)c(Nc4cc(OC)c(Cl)cc4C)c3cc2cc1OCCN1CCOCC1 [Example 190, 4-(4-Chloro-5-methoxy-2-methylanilino)-8-ethoxy-7-[2-(4-morpholinyl)ethoxy]benzo[g]quinoline-3-carbonitrile]",170 nM,195 to 196 °C
"COc1cc(Nc2c(C#N)cnc3cc4cc(OC)c(OCCN5CCN(C)CC5)cc4cc23)c(Cl)cc1C [Example 202, 4-(2-Chloro-5-methoxy-4-methylanilino)-8-methoxy-7-[2-(4-methyl 1-piperazinyl)ethoxy]benzo[g]quinoline-3-carbonitrile]",68 nM,218 to 235 °C and 220 to 227 °C
"COc1cc(Nc2c(C#N)cnc3nc4cc(OCCCl)c(OC)cc4cc23)c(Cl)cc1Cl [Example 172, 8-(2-Chloroethoxy)-4-(2,4-dichloro-5-methoxyanilino)-7-methoxybenzo[b][1,8]naphthyridine-3-carbonitrile]",1870 nM,227 to 230 °C (dec.)
